Measurements: the SangsterLogP compilation

Experiment: method code SF-RC, from DOI: 10.1021/jf60225a019, PMID: 546944

logP	SMILES
3.25	CCOc1ccc(C(c2ccc(OCC)cc2)C(C)(C)Cl)cc1
3.65	CCOc1ccc(C(c2ccc(OCC)cc2)C(Cl)Cl)cc1
3.16	CCOc1ccc(C(c2ccc(OCC)cc2)C(C)(C)C)cc1
3.57	COc1ccc(C(c2ccc(OC)cc2)C(C)(C)C)cc1
3.64	CCOc1ccc(C(c2ccc(OCC)cc2)C(C)(Cl)Cl)cc1
3.19	CCOc1ccc(C(c2ccc(C)cc2)C(C)Cl)cc1 (stereo unspecified)
3.55	CCOc1ccc(C(c2ccc(C)cc2)C(C)C)cc1 (stereo unspecified)
3.58	CCOc1ccc(C(c2ccc(OCC)cc2)C(C)Cl)cc1 (stereo unspecified)
3.61	CCOc1ccc(C(c2ccc(OCC)cc2)C(C)C)cc1
3.45	CCOc1ccc(C(c2ccc(OCC)cc2)C(C)[N+](=O)[O-])cc1 (stereo unspecified)
3.46	CCOc1ccc(C(c2ccc(C)cc2)C(C)[N+](=O)[O-])cc1 (stereo unspecified)
